Data reported in patent US11718618B2, “Substituted pyrido[2,1-a]isoquinolines as VMAT2 inhibitors” (priority 2021, dated 2023).
pKi: −log10 of the molar value. Read-outs that look alike come from different tables or passages of the source.

How the values were obtained:
human VMAT2 = human VMAT2 (Homo sapiens (Human), UniProt Q05940); experiment: VMAT2 radioligand binding, 3H-dihydrotetrabenazine competition on human platelet homogenate
Outline: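 Human platelet homogenate (30 μg membrane protein/well) in DPBS with 1 mM EDTA, pH 7.4; twelve test-compound concentrations competed against 10 nM ³H-dihydrotetrabenazine. Incubated 90 min at 25 °C, bound radioligand collected by filtration on PEI-pretreated glass-fibre filters and counted by scintillation; Ki derived.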

[1] = Stability of compounds in human liver microsomes; type: in vitro ADME; conditions: for CLint scaled at 0.5 μM / half-life at 0.5 μM: both sexes, pH 7.4; for CLint scaled at 0.5 μM: liver microsomes, calculated from HLM half-life, read-out: HLM Scaled Intrinsic Clearance; for CLint scaled at 0.5 μM / Predicted Max. Bioavailability (% F) / HLM Predicted Systemic Clearance: human; for half-life at 0.5 μM: 0.5 μM compound, 0.5 mg/mL human liver microsomes, 37° C., maxed at 420 minutes, read-out: HLM Elimination half-life (t1/2, min); for Predicted Max. Bioavailability (% F): predicted from HLM data; for HLM Predicted Systemic Clearance: scaled from HLM half-life (Obach method)
Experimental: A test compound (0.5 μM) was incubated with pooled mixed gender liver microsomes from humans (0.5 mg/mL total protein) at 37° C. in the presence of an NADPH-generating system containing 50 mM, pH 7.4 potassium phosphate buffer, 3 mM magnesium chloride, 1 mM EDTA, 1 mM NADP, 5 mM glusose-6-phosphate, and 1 Unit/mL glucose-6-phosphate dehydrogenase. All concentrations were relative to the final incubation volume of 125 μL. Incubations were conducted at 37° C. for 0, 5, 10, 20, 40, and 60 minutes in a water bath and terminated by rapid mixing with 150 μL of ice-cold acetonitrile containing internal standard. Precipitated proteins were removed by centrifugation prior to LC-MS/MS analysis. Aliquots of the resulting supernatant fractions were analyzed by LC-MS/MS monitoring for depletion of parent compound. The resultant peak area ratio versus time data was fitted to a non-linear regression using XLfit Scientific Curve Fitting Software (IDBS Ltd., Surrey, UK) and the elimination half-life (t1/2, min) was calculated from the slope. […] Additional values calculated included predicted extraction ratio and predicted maximum bioavailability.

[2] = 10 nM 3H-dihydrotetrabenazine, human platelet homogenate, 25° C., 90 minutes, read-out: VMAT2 Ki

Sequence of human VMAT2 (Q05940 whole entry): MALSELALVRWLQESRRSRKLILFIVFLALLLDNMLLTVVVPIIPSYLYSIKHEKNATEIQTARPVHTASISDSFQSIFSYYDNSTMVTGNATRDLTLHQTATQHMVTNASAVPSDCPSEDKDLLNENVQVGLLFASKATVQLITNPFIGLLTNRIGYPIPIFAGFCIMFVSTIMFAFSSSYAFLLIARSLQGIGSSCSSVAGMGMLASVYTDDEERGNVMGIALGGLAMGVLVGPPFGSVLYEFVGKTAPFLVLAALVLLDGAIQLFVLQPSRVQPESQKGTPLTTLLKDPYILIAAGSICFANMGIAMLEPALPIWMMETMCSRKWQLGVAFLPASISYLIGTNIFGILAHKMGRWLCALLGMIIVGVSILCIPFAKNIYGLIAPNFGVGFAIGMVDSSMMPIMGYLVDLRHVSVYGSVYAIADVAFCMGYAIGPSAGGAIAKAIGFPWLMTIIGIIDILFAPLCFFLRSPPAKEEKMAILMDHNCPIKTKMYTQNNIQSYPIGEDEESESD

## COc1cc2c(cc1OCCC1(C#N)CC1)CCN1C[C@@H](CC(C)(C)C)[C@H](O)C[C@H]21 [Compound 4-45, 1-(2-{[(2R,3R,11bR)-3-(2,2-dimethylpropyl)-2-hydroxy-10-methoxy-1H,2H,3H,4H,6H,7H,11bH-pyrido[2,1-a]isoquinolin-9-yl]oxy}ethyl)cyclopropane-1-carbonitrile]
Human VMAT2; [2]
  pKi: 8.14
[1]
  CLint scaled at 0.5 μM: 9.7 mL/min/kg
  half-life at 0.5 μM: 129 min
  Predicted Max. Bioavailability (% F): 67 % F
  HLM Predicted Systemic Clearance: 6.53 mL/min/kg

## COc1cc2c(cc1OCC1(CC#N)CC1)CCN1C[C@@H](CC(C)(C)C)[C@H](O)C[C@H]21 [Compound 4-46, 2-[1-({[(2R,3R,11bR)-3-(2,2-dimethylpropyl)-2-hydroxy-10-methoxy-1H,2H,3H,4H,6H,7H,11bH-pyrido[2,1-a]isoquinolin-9-yl]oxy}methyl)cyclo-propyl]acetonitrile]
Human VMAT2; [2]
  pKi: 7.60
[1]
  CLint scaled at 0.5 μM: 45.1 mL/min/kg
  half-life at 0.5 μM: 28 min
  Predicted Max. Bioavailability (% F): 31 % F
  HLM Predicted Systemic Clearance: 13.86 mL/min/kg

## COc1cc2c(cc1OCC(C)(C)O)CCN1C[C@@H](CC(C)(C)C)[C@H](O)C[C@H]21 [Compound 4-47, (2R,3R,11bR)-3-(2,2-dimethylpropyl)-9-(2-hydroxy-2-methylpropoxy)-10-methoxy-1H,2H,3H,4H,6H,7H,11bH-pyrido[2,1-a]isoquinolin-2-ol]
Human VMAT2; [2]
  pKi: 7.82
[1]
  CLint scaled at 0.5 μM: ≤ 2.97 mL/min/kg
  half-life at 0.5 μM: ≥ 420 min
  Predicted Max. Bioavailability (% F): ≥87 % F
  HLM Predicted Systemic Clearance: ≤2.59 mL/min/kg

## COc1cc2c(cc1OC[C@@H](O)C(F)(F)F)CCN1C[C@@H](CC(C)(C)C)[C@H](O)C[C@H]21 [Compound 4-49, (2R,3R,11bR)-3-(2,2-dimethylpropyl)-10-methoxy-9-[(2R)-3,3,3-trifluoro-2-hydroxypropoxy]-1H,2H,3H,4H,6H,7H,11bH-pyrido[2,1-a]isoquinolin-2-ol]
Human VMAT2; [2]
  pKi: 7.70
[1]
  CLint scaled at 0.5 μM: ≤ 2.97 mL/min/kg
  half-life at 0.5 μM: ≥ 420 min
  Predicted Max. Bioavailability (% F): ≥87 % F
  HLM Predicted Systemic Clearance: ≤2.59 mL/min/kg

## COc1cc2c(cc1OCC(O)C(F)F)CCN1C[C@@H](CC(C)(C)C)[C@H](O)C[C@H]21 (stereo partly drawn) [Compound 4-51, (2R,3R,11bR)-9-(3,3-difluoro-2-hydroxypropoxy)-3-(2,2-dimethylpropyl)-10-methoxy-1H,2H,3H,4H,6H,7H,11bH-pyrido[2,1-a]isoquinolin-2-ol]
Human VMAT2; [2]
  pKi: 8.03
[1]
  CLint scaled at 0.5 μM: ≤ 2.97 mL/min/kg
  half-life at 0.5 μM: ≥ 420 min
  Predicted Max. Bioavailability (% F): ≥87 % F
  HLM Predicted Systemic Clearance: ≤2.59 mL/min/kg

## [2H]C([2H])([2H])Oc1cc2c(cc1OC)[C@H]1C[C@@H](O)[C@H](CC(C)(C)C)CN1CC2 [Compound 4-52, (2R,3R,11bR)-3-(2,2-dimethylpropyl)-9-(methoxy-d3)-10-methoxy-1H,2H,3H,4H,6H,7H,11bH-pyrido[2,1-a]isoquinolin-2-ol]
Human VMAT2
  pKi: 8.60
[1]
  CLint scaled at 0.5 μM: ≤ 2.97 mL/min/kg
  half-life at 0.5 μM: ≥ 420 min
  Predicted Max. Bioavailability (% F): ≥87 % F
  HLM Predicted Systemic Clearance: ≤2.59 mL/min/kg

## COc1cc2c(cc1O[C@@H]1CCOC1)CCN1C[C@@H](CC(C)(C)C)[C@H](O)C[C@H]21 [Compound 4-53, (2R,3R1bR)-3-(2,2-dimethylpropyl)-10-methoxy-9-[(3R)-oxolan-3-yloxy]-1H,2H,3H,4H,6H,7H,11bH-pyrido[2,1-a]isoquinolin-2-ol]
Human VMAT2; [2]
  pKi: 7.92
[1]
  CLint scaled at 0.5 μM: 8.57 mL/min/kg
  half-life at 0.5 μM: 146 min
  Predicted Max. Bioavailability (% F): 70 % F
  HLM Predicted Systemic Clearance: 6 mL/min/kg

## COc1cc2c(cc1O[C@H]1CCOC1)CCN1C[C@@H](CC(C)(C)C)[C@H](O)C[C@H]21 [Compound 4-54, (2R,3R,11bR)-3-(2,2-dimethylpropyl)-10-methoxy-9-[(3S)-oxolan-3-yloxy]-1H,2H,3H,4H,6H,7H,11bH-pyrido[2,1-a]isoquinolin-2-ol]
Human VMAT2; [2]
  pKi: 7.92
[1]
  CLint scaled at 0.5 μM: 7.59 mL/min/kg
  half-life at 0.5 μM: 164 min
  Predicted Max. Bioavailability (% F): 73 % F
  HLM Predicted Systemic Clearance: 5.5 mL/min/kg

## C=C(C)COc1cc2c(cc1OC)[C@H]1C[C@@H](O)[C@H](CC(C)(C)C)CN1CC2 [Compound 4-56, (2R,3R,11bR)-3-(2,2-dimethylpropyl)-10-methoxy-9-[(2-methylprop-2-en-1-yl)oxy]-1H,2H,3H,4H,6H,7H,11bH-pyrido[2,1-a]isoquinolin-2-ol]
Human VMAT2; [2]
  pKi: 9.28
[1]
  CLint scaled at 0.5 μM: 121 mL/min/kg
  half-life at 0.5 μM: 10 min
  Predicted Max. Bioavailability (% F): 14 % F
  HLM Predicted Systemic Clearance: 17.16 mL/min/kg

## COc1cc2c(cc1OCC1(C(F)F)CC1)CCN1C[C@@H](CC(C)(C)C)[C@H](O)C[C@H]21 [Compound 4-57, (2R,3R,11bR)-9-{[1-(difluoromethyl)cyclo-propyl]methoxy}-3-(2,2-dimethylpropyl)-10-methoxy-1H,2H,3H,4H,6H,7H,11bH-pyrido[2,1-a]isoquinolin-2-ol]
Human VMAT2; [2]
  pKi: 9.03
[1]
  CLint scaled at 0.5 μM: ≤ 2.97 mL/min/kg
  half-life at 0.5 μM: ≥ 420 min
  Predicted Max. Bioavailability (% F): ≥87 % F
  HLM Predicted Systemic Clearance: ≤2.59 mL/min/kg

## CC[C@@H](O)COc1cc2c(cc1OC)[C@H]1C[C@@H](O)[C@H](CC(C)(C)C)CN1CC2 [Compound 4-58, (2R,3R,11bR)-3-(2,2-dimethylpropyl)-9-[(2R)-2-hydroxybutoxy]-10-methoxy-1H,2H,3H,4H,6H,7H,11bH-pyrido[2,1-a]isoquinolin-2-ol]
Human VMAT2
  pKi: 8.96
[1]
  CLint scaled at 0.5 μM: 5.99 mL/min/kg
  half-life at 0.5 μM: 208 min
  Predicted Max. Bioavailability (% F): 77 % F
  HLM Predicted Systemic Clearance: 4.61 mL/min/kg

## COc1cc2c(cc1OCc1ccc(C#N)o1)CCN1C[C@@H](CC(C)(C)C)[C@H](O)C[C@H]21 [Compound 4-59, 5-({[(2R,3R,11bR)-3-(2,2-dimethylpropyl)-2-hydroxy-10-methoxy-1H,2H,3H,4H,6H,7H,11bH-pyrido[2,1-a]isoquinolin-9-yl]oxy}methyl)furan-2-carbonitrile]
Human VMAT2; [2]
  pKi: 8.82
[1]
  CLint scaled at 0.5 μM: 24.8 mL/min/kg
  half-life at 0.5 μM: 50 min
  Predicted Max. Bioavailability (% F): 45 % F
  HLM Predicted Systemic Clearance: 11.08 mL/min/kg

## COc1cc2c(cc1OCc1ccccc1)CCN1C[C@@H](CC(C)(C)C)[C@H](O)C[C@H]21 [Compound 4-60, (2R,3R,11bR)-9-(benzyloxy)-3-(2,2-dimethylpropyl)-10-methoxy-1H,2H,3H,4H,6H,7H,11bH-pyrido[2,1-a]isoquinolin-2-ol]
Human VMAT2; [2]
  pKi: 8.51
[1]
  CLint scaled at 0.5 μM: 33.9 mL/min/kg
  half-life at 0.5 μM: 37 min
  Predicted Max. Bioavailability (% F): 37 % F
  HLM Predicted Systemic Clearance: 12.58 mL/min/kg

## COc1cc2c(cc1OCC1(F)CCC1)CCN1C[C@@H](CC(C)(C)C)[C@H](O)C[C@H]21 [Compound 4-61, (2R,3R,11bR)-3-(2,2-dimethylpropyl)-9-[(1-fluorocyclobutyl)methoxy]-10-methoxy-1H,2H,3H,4H,6H,7H,11bH-pyrido[2,1-a]isoquinolin-2-ol]
Human VMAT2; [2]
  pKi: 8.46
[1]
  CLint scaled at 0.5 μM: 42 mL/min/kg
  half-life at 0.5 μM: 30 min
  Predicted Max. Bioavailability (% F): 32 % F
  HLM Predicted Systemic Clearance: 13.55 mL/min/kg

## COc1cc2c(cc1OCC(O)CC(F)(F)F)CCN1C[C@@H](CC(C)(C)C)[C@H](O)C[C@H]21 (stereo partly drawn) [Compound 4-62, (2R,3R,11bR)-3-(2,2-dimethylpropyl)-10-methoxy-9-(4,4,4-trifluoro-2-hydroxybutoxy)-1H,2H,3H,4H,6H,7H,11bH-pyrido[2,1-a]isoquinolin-2-ol]
Human VMAT2; [2]
  pKi: 8.43
[1]
  CLint scaled at 0.5 μM: ≤ 2.97 mL/min/kg
  half-life at 0.5 μM: ≥ 420 min
  Predicted Max. Bioavailability (% F): ≥87 % F
  HLM Predicted Systemic Clearance: ≤2.59 mL/min/kg

## COc1cc2c(cc1OCc1ccc(F)cc1)CCN1C[C@@H](CC(C)(C)C)[C@H](O)C[C@H]21 [Compound 4-63, (2R,3R,11bR)-3-(2,2-dimethylpropyl)-9-[(4-fluorophenyl)methoxy]-10-methoxy-1H,2H,3H,4H,6H,7H,11bH-pyrido[2,1-a]isoquinolin-2-ol]
Human VMAT2; [2]
  pKi: 8.38
[1]
  CLint scaled at 0.5 μM: 42.3 mL/min/kg
  half-life at 0.5 μM: 29 min
  Predicted Max. Bioavailability (% F): 32 % F
  HLM Predicted Systemic Clearance: 13.58 mL/min/kg

## COc1cc2c(cc1OCc1cccc(F)c1)CCN1C[C@@H](CC(C)(C)C)[C@H](O)C[C@H]21 [Compound 4-64, (2R,3R,11bR)-3-(2,2-dimethylpropyl)-9-[(3-fluorophenyl)methoxy]-10-methoxy-1H,2H,3H,4H,6H,7H,11bH-pyrido[2,1-a]isoquinolin-2-ol]
Human VMAT2; [2]
  pKi: 8.26
[1]
  CLint scaled at 0.5 μM: 38 mL/min/kg
  half-life at 0.5 μM: 33 min
  Predicted Max. Bioavailability (% F): 35 % F
  HLM Predicted Systemic Clearance: 13.1 mL/min/kg
